Data: the NIST ThermoML archive (doi:10.1021/je9003959)
Numbers after ± are expanded uncertainties.

Columns and labels:
[1] = 101 kPa, Liquid; for viscosity: Capillary tube (Ostwald / Ubbelohde) method; for speed of sound: Cylindrical cavity resonance method
[2] = refractive index (Na D-line) (dimensionless); details: 101.33 kPa, Liquid, Standard Abbe refractometry
[3] = xn = mol fraction of the nth substance listed; details: 101 kPa, Liquid, x2 = 0; for viscosity: Capillary tube (Ostwald / Ubbelohde) method
[4] = refractive index (Na D-line) (dimensionless); xn = mol fraction of the nth substance listed; details: 101 kPa, Liquid, Standard Abbe refractometry, x2 = 0

SMILES	mass density ([1]; 293 K) [kg/m3]	viscosity ([1]; 293 K) [mPa·s]	viscosity ([1]; 298 K) [mPa·s]	viscosity ([1]; 303 K) [mPa·s]	mass density ([1]; 313 K) [kg/m3]	viscosity ([1]; 313 K) [mPa·s]	speed of sound ([1]; 313 K) [m/s]	viscosity ([1]; 323 K) [mPa·s]	refractive index ([2]; 293 K)	refractive index ([2]; 298 K)	refractive index ([2]; 303 K)	refractive index ([2]; 313 K)	refractive index ([2]; 323 K)	also measured
CCN1CCCC1=O [1-ethyl-2-pyrrolidinone]	1000.55 ± 1.8	2.133 ± 0.027	2.022 ± 0.026	1.832 ± 0.024	983.26 ± 2	1.621 ± 0.021	1435.3 ± 2.1	1.358 ± 0.018	1.46461 ± 0.00077	1.46192 ± 0.00087	1.45791 ± 0.00075	1.45415 ± 0.00064	1.45147 ± 0.00062	speed of sound ([1]; 293 K): 1511.6 ± 2.1 m/s; mass density ([1]; 298 K): 996.24 ± 1.8 kg/m3; speed of sound ([1]; 298 K): 1492.5 ± 2.1 m/s; mass density ([1]; 303 K): 991.93 ± 1.9 kg/m3; speed of sound ([1]; 303 K): 1473.3 ± 2.1 m/s; mass density ([1]; 323 K): 974.56 ± 2.1 kg/m3; speed of sound ([1]; 323 K): 1398 ± 2.1 m/s
O [water]	998.26 ± 1.2	1.009 ± 0.01	0.9029 ± 0.0094	0.8133 ± 0.0084	992.26 ± 1.3	0.6693 ± 0.007	1529.1 ± 1.2	0.5611 ± 0.0061	1.33298 ± 0.00044	1.33251 ± 0.00045	1.33191 ± 0.00045	1.33061 ± 0.00046	1.32902 ± 0.00046	
O [water] + CCN1CCCC1=O														viscosity ([3]; 293 K): 1.009 ± 0.01 mPa·s; mass density ([3]; 293 K): 998.26 ± 1.2 kg/m3; viscosity ([3]; 298 K): 0.9029 ± 0.0094 mPa·s; viscosity ([3]; 303 K): 0.8133 ± 0.0084 mPa·s; viscosity ([3]; 313 K): 0.6693 ± 0.007 mPa·s; speed of sound ([3]; 313 K, Cylindrical cavity resonance method): 1529.1 ± 1.2 m/s; mass density ([3]; 313 K): 992.26 ± 1.3 kg/m3; viscosity ([3]; 323 K): 0.5611 ± 0.0061 mPa·s; refractive index ([4]; 293 K): 1.33298 ± 0.00044; refractive index ([4]; 298 K): 1.33251 ± 0.00045; refractive index ([4]; 303 K): 1.33191 ± 0.00045; refractive index ([4]; 313 K): 1.33061 ± 0.00046; refractive index ([4]; 323 K): 1.32902 ± 0.00046
